According to PubChem BioAssay AID2060490 (Molecular Pharmacology Branch, DTP, NCI, 2025):

Test system: 885512-296-R-J2-PDC complex spheroid viability
Experiment: Anticancer human tumor 885512-296-R-J2-PDC patient-derived breast carcinoma cell line growth inhibition [GQUAD]
Conditions: for IC50: curve of first compound; for viability, T/C: stronger effect = lower value
Procedure, shortened: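 Viability of tumor cells grown as complex spheroids with endothelial and stromal cells, exposed to drug combinations. Top concentration at or near clinical Cmax (else 10 microM), diluted in half-log increments.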

[1] = second compound 0.0316 µM, first compound 0.000999 µM
[2] = second compound 0.0316 µM, first compound 0.00316 µM
[3] = second compound 0.0316 µM, first compound 0.00999 µM
[4] = second compound 0.0316 µM, first compound 0.0316 µM
[5] = second compound 0.0316 µM, first compound 0.0999 µM
[6] = second compound 0.0316 µM, first compound 0.316 µM
[7] = second compound 0.1 µM, first compound 0.000999 µM
[8] = second compound 0.1 µM, first compound 0.00316 µM
[9] = second compound 0.1 µM, first compound 0.00999 µM
[10] = second compound 0.1 µM, first compound 0.0316 µM
[11] = second compound 0.1 µM, first compound 0.0999 µM
[12] = second compound 0.1 µM, first compound 0.316 µM
[13] = second compound 0.316 µM, first compound 0.000999 µM
[14] = second compound 0.316 µM, first compound 0.00316 µM
[15] = second compound 0.316 µM, first compound 0.00999 µM
[16] = second compound 0.316 µM, first compound 0.0316 µM
[17] = second compound 0.316 µM, first compound 0.0999 µM
[18] = second compound 0.316 µM, first compound 0.316 µM
[19] = second compound 1 µM, first compound 0.000999 µM
[20] = second compound 1 µM, first compound 0.00316 µM
[21] = second compound 1 µM, first compound 0.00999 µM
[22] = second compound 1 µM, first compound 0.0316 µM
[23] = second compound 1 µM, first compound 0.0999 µM
[24] = second compound 1 µM, first compound 0.316 µM
[25] = second compound 3.16 µM, first compound 0.000999 µM
[26] = second compound 3.16 µM, first compound 0.00316 µM
[27] = second compound 3.16 µM, first compound 0.00999 µM
[28] = second compound 3.16 µM, first compound 0.0316 µM
[29] = second compound 3.16 µM, first compound 0.0999 µM
[30] = second compound 3.16 µM, first compound 0.316 µM
[31] = second compound 10 µM, first compound 0.000999 µM
[32] = second compound 10 µM, first compound 0.00316 µM
[33] = second compound 10 µM, first compound 0.00999 µM
[34] = second compound 10 µM, first compound 0.0316 µM
[35] = second compound 10 µM, first compound 0.0999 µM
[36] = second compound 10 µM, first compound 0.316 µM
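Note: spheroids exposed to the compounds for one week.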
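Throughout, for viability, T/C: percent of tumor spheroid viability relative to DMSO vehicle control wells.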

CC[C@@]1(O)C(=O)OCc2c1cc1n(c2=O)Cc2cc3c(CN(C)C)c(O)ccc3nc2-1 + Cc1[nH]c2ccc(F)cc2c1-c1nc2c3cccnc3c3ncccc3c2[nH]1
IC50 (second compound 0.0316 µM): 26.3 nM | IC50 (second compound 0.1 µM): 29.7 nM | IC50 (second compound 0.316 µM): 29.9 nM | IC50 (second compound 1 µM): 19.8 nM | IC50 (second compound 3.16 µM): < 0.999 nM | IC50 (second compound 10 µM): < 0.999 nM | viability, T/C [1]: 105% | viability, T/C [2]: 88.5% | viability, T/C [3]: 89.9% | viability, T/C [4]: 41.7% | viability, T/C [5]: 14.9% | viability, T/C [6]: 6.49% | viability, T/C [7]: 110% | viability, T/C [8]: 101% | viability, T/C [9]: 98.5% | viability, T/C [10]: 46.9% | viability, T/C [11]: 10.7% | viability, T/C [12]: 4.48% | viability, T/C [13]: 96% | viability, T/C [14]: 101% | viability, T/C [15]: 87.3% | viability, T/C [16]: 48.3% | viability, T/C [17]: 11.2% | viability, T/C [18]: 3.51% | viability, T/C [19]: 68.2% | viability, T/C [20]: 74.6% | viability, T/C [21]: 72% | viability, T/C [22]: 35.7% | viability, T/C [23]: 9.71% | viability, T/C [24]: 3.76% | viability, T/C [25]: 14.8% | viability, T/C [26]: 23.3% | viability, T/C [27]: 14% | viability, T/C [28]: 6.97% | viability, T/C [29]: 2.52% | viability, T/C [30]: 2.01% | viability, T/C [31]: 1.29% | viability, T/C [32]: 2.13% | viability, T/C [33]: 1.51% | viability, T/C [34]: 1.58% | viability, T/C [35]: 1.12% | viability, T/C [36]: 0.82%

CC[C@@]1(O)C(=O)OCc2c1cc1n(c2=O)Cc2cc3c(CN(C)C)c(O)ccc3nc2-1 + CN(C)c1ccc(Nc2c3ccc(NC(=O)CCN4CCCC4)cc3nc3cc(NC(=O)CCN4CCCC4)ccc23)cc1
IC50 (second compound 0.0316 µM): 19.5 nM | IC50 (second compound 0.1 µM): 22 nM | IC50 (second compound 0.316 µM): 20.2 nM | IC50 (second compound 1 µM): 20.2 nM | IC50 (second compound 3.16 µM): 19.8 nM | IC50 (second compound 10 µM): < 0.999 nM | viability, T/C [1]: 105% | viability, T/C [2]: 93.1% | viability, T/C [3]: 80.7% | viability, T/C [4]: 28.4% | viability, T/C [5]: 6.28% | viability, T/C [6]: 4.08% | viability, T/C [7]: 102% | viability, T/C [8]: 95.5% | viability, T/C [9]: 83.5% | viability, T/C [10]: 34.9% | viability, T/C [11]: 6.9% | viability, T/C [12]: 3.94% | viability, T/C [13]: 95.9% | viability, T/C [14]: 103% | viability, T/C [15]: 80.7% | viability, T/C [16]: 30.2% | viability, T/C [17]: 8.66% | viability, T/C [18]: 5.73% | viability, T/C [19]: 99% | viability, T/C [20]: 89.1% | viability, T/C [21]: 78.9% | viability, T/C [22]: 32.2% | viability, T/C [23]: 8.09% | viability, T/C [24]: 7.14% | viability, T/C [25]: 85.8% | viability, T/C [26]: 78.5% | viability, T/C [27]: 82.5% | viability, T/C [28]: 28.2% | viability, T/C [29]: 11.3% | viability, T/C [30]: 5.81% | viability, T/C [31]: 20.1% | viability, T/C [32]: 23.4% | viability, T/C [33]: 18.2% | viability, T/C [34]: 10.8% | viability, T/C [35]: 7.67% | viability, T/C [36]: 5.22%

O=C(c1cc(Cc2n[nH]c(=O)c3ccccc23)ccc1F)N1CCN(C(=O)C2CC2)CC1 + Cc1[nH]c2ccc(F)cc2c1-c1nc2c3cccnc3c3ncccc3c2[nH]1
IC50 (second compound 0.0316 µM): 8270 nM | IC50 (second compound 0.1 µM): 9460 nM | IC50 (second compound 0.316 µM): 8460 nM | IC50 (second compound 1 µM): 5090 nM | IC50 (second compound 3.16 µM): < 31.6 nM | IC50 (second compound 10 µM): < 31.6 nM | viability, T/C [4]: 105% | viability, T/C (second compound 0.0316 µM, first compound 0.1 µM): 96.3% | viability, T/C [6]: 124% | viability, T/C (second compound 0.0316 µM, first compound 1 µM): 139% | viability, T/C (second compound 0.0316 µM, first compound 3.16 µM): 134% | viability, T/C (second compound 0.0316 µM, first compound 10 µM): 36% | viability, T/C [10]: 98% | viability, T/C (second compound 0.1 µM, first compound 0.1 µM): 103% | viability, T/C [12]: 119% | viability, T/C (second compound 0.1 µM, first compound 1 µM): 137% | viability, T/C (second compound 0.1 µM, first compound 3.16 µM): 146% | viability, T/C (second compound 0.1 µM, first compound 10 µM): 46.4% | viability, T/C [16]: 94.3% | viability, T/C (second compound 0.316 µM, first compound 0.1 µM): 99.2% | viability, T/C [18]: 112% | viability, T/C (second compound 0.316 µM, first compound 1 µM): 150% | viability, T/C (second compound 0.316 µM, first compound 3.16 µM): 131% | viability, T/C (second compound 0.316 µM, first compound 10 µM): 38.7% | viability, T/C [22]: 75.2% | viability, T/C (second compound 1 µM, first compound 0.1 µM): 74.4% | viability, T/C [24]: 82.4% | viability, T/C (second compound 1 µM, first compound 1 µM): 101% | viability, T/C (second compound 1 µM, first compound 3.16 µM): 70.5% | viability, T/C (second compound 1 µM, first compound 10 µM): 21% | viability, T/C [28]: 13.8% | viability, T/C (second compound 3.16 µM, first compound 0.1 µM): 13.9% | viability, T/C [30]: 16.7% | viability, T/C (second compound 3.16 µM, first compound 1 µM): 14.9% | viability, T/C (second compound 3.16 µM, first compound 3.16 µM): 6.15% | viability, T/C (second compound 3.16 µM, first compound 10 µM): 2.65% | viability, T/C [34]: 2.34% | viability, T/C (second compound 10 µM, first compound 0.1 µM): 2.08% | viability, T/C [36]: 3.14% | viability, T/C (second compound 10 µM, first compound 1 µM): 1.59% | viability, T/C (second compound 10 µM, first compound 3.16 µM): 1.27% | viability, T/C (second compound 10 µM, first compound 10 µM): 1.27%

Cc1[nH]c2ccccc2c1CCNCc1ccc(/C=C/C(=O)NO)cc1 + Cc1cnc(CNC(=O)c2c(=O)c3ccc(N4CCCN(C)CC4)nc3n3c2sc2ccccc23)cn1
IC50 (second compound 0.0316 µM): 15 nM | IC50 (second compound 0.1 µM): < 0.999 nM | IC50 (second compound 0.316 µM): < 0.999 nM | IC50 (second compound 1 µM): < 0.999 nM | IC50 (second compound 3.16 µM): < 0.999 nM | IC50 (second compound 10 µM): < 0.999 nM | viability, T/C [1]: 83.8% | viability, T/C [2]: 80.2% | viability, T/C [3]: 52% | viability, T/C [4]: 34.5% | viability, T/C [5]: 27.9% | viability, T/C [6]: 5.52% | viability, T/C [7]: 52.9% | viability, T/C [8]: 43.2% | viability, T/C [9]: 38.6% | viability, T/C [10]: 36.9% | viability, T/C [11]: 29.8% | viability, T/C [12]: 6.34% | viability, T/C [13]: 27.3% | viability, T/C [14]: 16% | viability, T/C [15]: 15.3% | viability, T/C [16]: 22.8% | viability, T/C [17]: 25.1% | viability, T/C [18]: 5.41% | viability, T/C [19]: 17.4% | viability, T/C [20]: 14.9% | viability, T/C [21]: 19.2% | viability, T/C [22]: 15.4% | viability, T/C [23]: 13.9% | viability, T/C [24]: 0.1% | viability, T/C [25]: 19.2% | viability, T/C [26]: 17.6% | viability, T/C [27]: 0.21% | viability, T/C [28]: 0.22% | viability, T/C [29]: 0.15% | viability, T/C [30]: 0.13% | viability, T/C [31]: 0.17% | viability, T/C [32]: 0.17% | viability, T/C [33]: 0.24% | viability, T/C [34]: 0.22% | viability, T/C [35]: 0.22% | viability, T/C [36]: 0.23%
